Assay results published in patent US20230405134A1, “NOVEL PROTAC CHIMERIC COMPOUND, AND PHARMACEUTICAL COMPOSITION COMPRISING SAME FOR PREVENTING, AMELIORATING, OR TREATING DISEASES THROUGH TARGET PROTEIN DEGRADATION” (POSTECH RESEARCH AND BUSINESS DEVELOPMENT FOUNDATION, priority 2020, published 2023).
Where a SMILES comes first, the peptide text is derived from it. Bridges are numbered along the chain shown (N, C = ends). [ ]: non-standard residue; d: D form. Cha = N[C@@H](CC1CCCCC1)C(=O)O; S5 = C=CCCC[C@](C)(N)C(=O)O

Assays:
CSF-1 = CSF-1 mRNA level by RT-qPCR in MDA-MB-231 cells; format: cell-based, human; conditions: 12 hours
From the text: (§1) The pharmacological effects on SRC-1 dependent signal transmission were explored using the previously discovered SRC-1 degrading substance. The SRC-1 is overexpressed in various cancers and plays a pivotal role in increasing cell migration and invasion by regulating the expression of related genes. Therefore, when treated with ND1-YL2, an SRC-1 degrading substance, the expression of genes stimulated by SRC-1, such as colony stimulating factor-1 (CSF-1), a gene encoding the cytokine CSF-1 that induces cell differentiation and migration, will be suppressed. To confirm this, MDA-MB-231 cells were treated with DMSO and various concentrations of ND1-YL2, YL2 or N-degron tetrapeptide for 12 hours, and the mRNA level of CSF-1 was normalized to 18S level. Confirmation was made using quantitative real-time polymerase chain reaction (RT-qPCR). MDA-MB-231 cells were seeded at 2×10^5 cells per well. After 24 hours, compounds (YL2, RLAA or ND1-YL2) were treated in Opti-MEM medium for 12 hours. Subsequently, general mRNA isolation was performed using TRI reagent (Takara), and total mRNA was isolated from the cells. The absorbance of total mRNA was measured with a Tecan F200 Nanophotometer, and reverse transcription was performed using AccuPower RocketScript Cycle RT PreMix (Bioneer). Quantitative real-time PCR for CSF-1, E-Cadherin and 18S was performed using a StepOnePlus Real-Time PCR System and SYBR Green mix (Applied Biosystems) according to the manufacturer's manual.

E-cadherin = E-cadherin mRNA level by RT-qPCR in MDA-MB-231 cells; format: cell-based, human; conditions: 12 hours
From the text: as §1
In addition, the effect of the ND1-YL2 on the expression of E-cadherin, a tumor suppressor gene that plays an important role in cell-cell adhesion, was tested. Since SRC-1 protein is known to suppress the E-cadherin expression, the ND1-YL2 will upregulate the E-cadherin by degrading SRC-1.

MDA-MB-231 cells [1] = assay: Gap closure migration assay; format: cell-based, human; conditions: 20 μM, 72 hours
Experimental: Based on the results that the SRC-1 degradation effectively affects the transcription mediated by SRC-1 (FIGS. 18A and 18B), it was predicted that ND1-YL2 would exert an inhibitory effect on downstream signaling pathways such as increased cancer cell migration and invasion. To test this, we first performed a gap closure migration assay using an invasive MDA-MB-231 cell line. MDA-MB-231 cells (70 μL of 4×10^5 cells/mL) were seeded in culture insert 2 wells (ibidi, 80209) pre-inserted into p-dishes (ibidi) under the conditions of 37° C. and 5% CO2. The culture insert 2 wells was gently removed with sterile tweezers. The cells were treated with DMSO, YL2 (20 […]), RLAA (20 μM) or ND1-YL2 (20 μM) in Opti-MEM medium for 72 hours. Images were obtained by a camera (Olympus) attached to an optical microscope. The cells were grown in the culture insert wells, and the inserts were removed to create intercellular gaps inside the wells. Subsequently, after treated with DMSO, YL2, RLAA peptide or ND1-YL2, the cells were cultured for 72 hours and the degree of cell migration was observed. The cell migration was quantified by analyzing the images of cells filling the gap.

MDA-MB-231 cells [2] = assay: Matrigel invasion assay; format: cell-based, human; conditions: 24 hours; ND1-YL2 various concentrations, YL2 and RLAA 20 μM
Experimental: The inhibition of cell migration may be due to the inhibitory effect of ND1-YL2 on cell growth. In order to exclude this possibility, the invasive ability of cells treated with ND1-YL2 was confirmed. A Corning Matrigel insert (Corning) was placed in a 24-well plate. After hydrating the Matrigel insert with an FBS-free DMEM medium for 2 hours in a CO2 incubator, MDA-MB-231 cells were cultured in the Matrigel insert (4×10^4 cells/insert) with 125 μL of Opti-MEM medium. Another 125 μl of compound containing Opti-MEM medium was added to the insert. The lower chamber was filled with 500 μL of DMEM medium containing 10% FBS. The Matrigel chamber was cultured for 24 hours under the conditions of 37° C. and 5% CO2. The cell culture media of the upper and lower chambers were removed and washed three times with cold DPBS. Non-invasive cells were then removed with a cotton swab. The bottom of the chamber was fixed with 4% formaldehyde for 10 minutes at room temperature, and stained with Hoechst 33342 (5 μg/mL) for 5 minutes in a CO2 incubator. After washed with DPBS, images of infiltrated cells were obtained by a fluorescence microscope. The percentage of the invasive cells was calculated using the product manual. MDA-MB-231 cells were treated with various concentrations of ND1-YL2, N-degron (20 μM) or YL2 (20 μM). After 24 hours, images of the invaded cells were obtained by a fluorescence microscope, and the number of invaded cells was quantified through the images. […] The inhibitory activity of ND1-YL2 on cell migration and invasion is in good agreement with previous SRC-1 knockdown experiments.

SRC-1 = SRC-1 (Homo sapiens, UniProt Q15788); assay: SRC-1 expression level in MDA-MB-231 cells by Western blot; format: cell-based; set-up: endogenous in cells; host or cells: MDA-MB-231; conditions: 20 μM, 12 hours
[3] = target: T1, UBR box (residues 113-194) in the UBR1 E3 ubiquitin ligase of S. cerevisiae (S. cerevisiae, UniProt P19812 113-194); assay: competitive fluorescence polarization on the UBR box (as the sentence implies; the origin of the value is not stated)
T1 construct: range 113-194; Expressed and purified as in Nat; Struct; Mol. Biol. 2010, 17, 1175-1181
T1 sequence (looked up): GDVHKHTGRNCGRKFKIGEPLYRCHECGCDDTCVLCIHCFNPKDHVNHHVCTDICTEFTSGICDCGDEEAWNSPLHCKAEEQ

Chain of SRC-1 (Q15788 whole entry, the tested form may be a part): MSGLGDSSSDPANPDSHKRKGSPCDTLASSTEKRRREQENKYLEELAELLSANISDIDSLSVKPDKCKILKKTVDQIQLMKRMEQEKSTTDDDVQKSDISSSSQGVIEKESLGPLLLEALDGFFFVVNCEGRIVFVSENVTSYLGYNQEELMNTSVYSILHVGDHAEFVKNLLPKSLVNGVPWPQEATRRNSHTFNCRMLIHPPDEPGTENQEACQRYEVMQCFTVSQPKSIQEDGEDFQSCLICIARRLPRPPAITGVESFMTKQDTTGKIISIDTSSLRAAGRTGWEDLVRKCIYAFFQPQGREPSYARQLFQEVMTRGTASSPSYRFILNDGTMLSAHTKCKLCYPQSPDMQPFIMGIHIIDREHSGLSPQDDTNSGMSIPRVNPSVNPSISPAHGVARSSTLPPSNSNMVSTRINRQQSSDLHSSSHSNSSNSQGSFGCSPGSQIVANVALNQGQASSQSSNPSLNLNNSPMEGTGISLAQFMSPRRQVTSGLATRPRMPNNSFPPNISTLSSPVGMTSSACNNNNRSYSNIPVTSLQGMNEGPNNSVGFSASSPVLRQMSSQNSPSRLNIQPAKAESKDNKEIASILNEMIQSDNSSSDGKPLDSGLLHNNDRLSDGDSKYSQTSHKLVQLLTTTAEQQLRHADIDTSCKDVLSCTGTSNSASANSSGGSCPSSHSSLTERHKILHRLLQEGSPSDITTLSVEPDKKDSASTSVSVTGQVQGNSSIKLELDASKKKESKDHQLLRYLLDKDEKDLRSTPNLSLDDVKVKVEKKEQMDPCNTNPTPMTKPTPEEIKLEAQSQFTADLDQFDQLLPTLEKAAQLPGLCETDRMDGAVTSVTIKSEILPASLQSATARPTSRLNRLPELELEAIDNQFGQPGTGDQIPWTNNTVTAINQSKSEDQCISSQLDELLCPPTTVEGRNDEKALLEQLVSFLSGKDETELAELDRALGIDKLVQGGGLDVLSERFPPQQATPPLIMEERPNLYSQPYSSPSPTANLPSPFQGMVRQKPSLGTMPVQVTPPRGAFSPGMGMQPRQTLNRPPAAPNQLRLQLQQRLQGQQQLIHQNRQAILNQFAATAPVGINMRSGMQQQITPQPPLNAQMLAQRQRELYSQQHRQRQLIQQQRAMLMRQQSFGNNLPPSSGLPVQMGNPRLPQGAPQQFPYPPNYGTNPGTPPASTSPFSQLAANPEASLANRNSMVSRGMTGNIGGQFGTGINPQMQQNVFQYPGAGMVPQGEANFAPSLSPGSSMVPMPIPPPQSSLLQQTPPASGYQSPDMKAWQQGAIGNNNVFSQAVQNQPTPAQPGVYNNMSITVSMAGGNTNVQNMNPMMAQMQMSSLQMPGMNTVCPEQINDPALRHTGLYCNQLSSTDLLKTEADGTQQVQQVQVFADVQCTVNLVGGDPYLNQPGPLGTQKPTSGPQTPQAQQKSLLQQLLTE

With `CC(C)C[C@@H]1NC(=O)[C@H](CCCCN)NC(=O)[C@@](C)(NC(=O)[C@H](CC(C)C)NC(=O)[C@H](CC(=O)O)NC(=O)[C@H](CCC(N)=O)NC(=O)[C@H](CCC(=O)O)NC(=O)[C@@H](NC(=O)[C@@H]2CCCN2C(=O)[C@@H]2CCCN2C(=O)[C@H](CC(C)C)NC(=O)[C@@H](N)CC(C)C)[C@@H](C)O)CCC/C=C\CCC[C@@](C)(C(=O)N[C@@H](Cc2ccc(O)cc2)C(N)=O)NC(=O)[C@H](CC2CCCCC2)NC1=O` [YL2] (H-LLPPTEQDL[S5]KL[Cha][S5]Y-NH2; staple (Z) 10-14; N-terminus and C-terminus assumed) the “Effect on CSF-1 expression (mRNA normalized to 18S)” value (CSF-1) was “did not significantly affect”, the “Effect on E-cadherin expression (mRNA)” value (E-cadherin) was “no effect” and the “Existing gaps maintained (cell migration)” value (MDA-MB-231 cells [1]) was “gaps were completely filled”. For the same molecule, the “Effect on cell invasion” value (MDA-MB-231 cells [2]) was “no significant effect” and the “SRC-1 degradation, single agents compared” value (SRC-1) was “Neither YL2 nor RLAA tetrapeptide per se had any effect”.

`CC(C)C[C@H](NC(=O)[C@@H](N)CCCNC(=N)N)C(=O)N[C@@H](C)C(=O)N[C@@H](C)C(N)=O` [RLAA] (H-RLAA-NH2) was tested, and the “Effect on CSF-1 expression (mRNA normalized to 18S)” value (CSF-1) was “did not significantly affect”, the “Effect on E-cadherin expression (mRNA)” value (E-cadherin) was “no effect” and the “Existing gaps maintained (cell migration)” value (MDA-MB-231 cells [1]) was “gaps were completely filled”. The “Effect on cell invasion” value (MDA-MB-231 cells [2]) was “no significant effect” and the “SRC-1 degradation, single agents compared” value (SRC-1) was “Neither YL2 nor RLAA tetrapeptide per se had any effect”.

B1: RLAA tetrapeptide (peptide)
peptide: RLAA
notes: also called RLAA peptide; N-degron tetrapeptide
Work on B1 yielded a Ki [3] of 4.2 µM.
